For test [1], the target named is T1, human immunoproteasome β5i (Homo sapiens, UniProt P28062).
T1 construct: purchased Boston Biochem Inc
As to the kind of experiment: IC50 against chymotryptic β5i activity of human immunoproteasome (96-well plate, Ac-ANW-AMC). It is filed as biochemical. To be noted: for IC50: β5i, substrate Ac-ANW-AMC, read-out: IC50 Hu i-20S (Ac-ANW-AMC). As to the method:
A 96-well-plate assays were used to determine the IC50s against the chymotryptic β5 activities of the proteasomes. Both human constitutive proteasome and immunoproteasome were purchased from Boston Biochem Inc. 1 μL of 100× compound in DMSO at designated concentrations were spotted at the bottom of the wells. DMSO was used as a control. […] The hydrolysis of the substrate over time in each well was monitored at excitation 360 nm, emission 460 nm for 90 minutes. IC50s were estimated by fitting the velocities of hydrolysis against compound concentrations using PRISM. […] SDS (0.02%) was used as activator, and 0.01% BSA was used in the reaction buffer.

Test [2] concerns the target T2, human constitutive proteasome β5c (Homo sapiens, UniProt P28074).
T2 construct: purchased Boston Biochem Inc
In words: IC50 against chymotryptic β5c activity of human constitutive proteasome (96-well plate, Suc-LLVY-AMC). It counts as biochemical. To be noted: for IC50: β5c, substrate Suc-LLVY-AMC, read-out: IC50 Hu c-20S (Suc-LLVY-AMC). As to the method:
A 96-well-plate assays were used to determine the IC50s against the chymotryptic β5 activities of the proteasomes. Both human constitutive proteasome and immunoproteasome were purchased from Boston Biochem Inc. 1 μL of 100× compound in DMSO at designated concentrations were spotted at the bottom of the wells. DMSO was used as a control. Final concentrations of the inhibitors were from 100 μM to 0.098 μM. The hydrolysis of the substrate over time in each well was monitored at excitation 360 nm, emission 460 nm for 90 minutes. IC50s were estimated by fitting the velocities of hydrolysis against compound concentrations using PRISM. […] Suc-LLVY-AMC was used for βc at final concentration of 25 μM, and Ac-ANW-AMC for b5i at final concentration of 15 μM. SDS (0.02%) was used as activator, and 0.01% BSA was used in the reaction buffer.
The foregoing features of these AsnEDA encouraged a further round of SAR studies (Table 5) based on varying the carboxylic acid at the ethylenediamine, the N-cap at the Asn, and the side chain of the Asn, based on PKS21004. All compounds listed in the Table 5 were synthesized as described in Examples 6-77. All final compounds were confirmed by NMR and HRMS. IC50s of all compounds against β5i and β5c (Table 5), β1i, β2i, β1c and β2c were determined following a reported method (Lin et al., “N,C-Capped Dipeptides With Selectivity for Mycobacterial Proteasome Over Human Proteasomes: Role of S3 and S1Binding Pockets,” J Am Chem Soc. 135:9968-9971 (2013), which is hereby incorporated by reference in its entirety). […] The [1,1′-biphenyl]-3-carboxamide of PKS21004 was then modified with the following substituents: 4′-fluoro (PKS21026), 4′-cyano (PKS21028), 4-fluoro (PKS21196), 4,3′-difluoro (PKS21195) and 4,2′-difluoro (PKS21187).

As for `CC(C)(C)NC(=O)C[C@H](NC(=O)CCc1ccccc1)C(=O)NCCNC(=O)c1cccc(-c2ccc(C#N)cc2)c1` [PKS21028], the IC50 was 2060 nM in test [1] and 7250 nM in test [2].
The like results for `CC(C)(C)NC(=O)CC[C@H](NC(=O)CCc1ccccc1)C(=O)NCCNC(=O)c1cccc(-c2ccccc2)c1` [PKS21030] were, in that order, 390 nM and 68 nM.
Consider `CC(C)(C)NC(=O)C[C@H](NC(=O)CCc1ccccc1)C(=O)NCCNC(=O)c1cc(-c2ccccc2)ccn1` [PKS21186], for which the figures for the IC50 in test [1] and in test [2] were 125 nM and 2760 nM, respectively.
Take `CC(C)(C)NC(=O)C[C@H](NC(=O)CCc1ccccc1)C(=O)NCCNC(=O)c1cc(-c2ccccc2F)ccc1F` [PKS21187]: in test [1], the “selectivity for β5i over β5c” value is reported as approximately 20 fold and the IC50 was 16 nM. In test [2], the IC50 was found to be 360 nM.
Regarding `CC(C)(C)NC(=O)C[C@H](NC(=O)CCc1ccccc1)C(=O)NCCNC(=O)c1cc(-c2cccc(F)c2)ccc1F` [PKS21195], the IC50 in test [1] worked out at 59 nM; in test [2], 1940 nM.
Regarding `CC(C)(C)NC(=O)C[C@H](NC(=O)CCc1ccccc1)C(=O)NCCNC(=O)c1cc(-c2ccccc2)ccc1F` [PKS21196], the values for the IC50 in test [1] and in test [2] were 44 nM and 818 nM, respectively.
The like results for `Cc1cc(C(=O)N[C@@H](CC(=O)NC(C)(C)C)C(=O)NCCNC(=O)c2cc(-c3ccccc3F)ccc2F)no1` [PKS21208] were, in that order, 27 nM and 1040 nM.
For `Cc1cc(C(=O)N[C@@H](CC(=O)NC(C)(C)C)C(=O)NCCNC(=O)c2cc(-c3cccc(F)c3)ccc2F)no1` [PKS21225], the IC50 in test [1] stood at 269 nM; in test [2], 11800 nM.
As for `Cc1ccc(S(=O)(=O)N[C@@H](CC(=O)NC(C)(C)C)C(=O)NCCNC(=O)c2cc(-c3cccc(F)c3)ccc2F)cc1` [PKS21228], the half-inhibitory concentration (IC50) in test [1] came to 12 nM; in test [2], 420 nM.
Consider `Cc1cc(C(=O)N[C@@H](CC(=O)NC(C)(C)C)C(=O)NCCNC(=O)c2ccccn2)no1` [PKS21250], for which the IC50 is 65600 nM in test [1] and more than 100000 nM in test [2].
Take `Cc1cc(C(=O)N[C@@H](CC(=O)NC(C)(C)C)C(=O)NCCNC(=O)c2ccccc2F)no1` [PKS21251]: the IC50 in test [1] amounted to 6340 nM; in test [2], 39000 nM.
Turning to `CC(C)(C)NC(=O)C[C@H](NC(=O)CCc1ccc(F)cc1)C(=O)NCCNC(=O)c1ccccn1` [PKS21254], the IC50 in test [1] stood at 7770 nM; in test [2], 57400 nM.
Turning to `CC(C)(C)NC(=O)C[C@H](NC(=O)CCc1ccc(F)cc1)C(=O)NCCNC(=O)c1ccccc1F` [PKS21255], the results for the IC50 in test [1] and in test [2] were 740 nM and 3640 nM, respectively.
Taken in the same sequence, the figures for `CC(C)(C)NC(=O)C[C@H](NC(=O)CCc1ccc(F)cc1)C(=O)NCCNC(=O)c1cccc2cccnc12` [PKS21258] were 2410 nM and 22700 nM.
Turning to `CC(C)(C)NC(=O)C[C@H](NC(=O)CCc1ccc(F)cc1)C(=O)NCCNC(=O)c1ccc(F)c2ccccc12` [PKS21259], the IC50 in test [1] was 158 nM; in test [2], 2240 nM.
`CC(C)(C)OC(=O)NCC(=O)NCCNC(=O)c1cc(-c2ccccc2F)ccc1F` [PKS21276]: in test [1], the “inhibitory activity against β5i (in words)” value was “abolished the inhibitory activities” and the IC50 was 24300 nM. In test [2], the “inhibitory activity against β5c (in words)” value is “abolished the inhibitory activities” and the IC50 was more than 100000 nM.
Take `CC(C)(C)NC(=O)C[C@H](NC(=O)OC(C)(C)C)C(=O)NCCNC(=O)c1cc(-c2ccccc2F)ccc1F` [PKS21277]: in test [1], the “inhibitory activity against β5i (in words)” value is “modestly potent”, the “selectivity for β5i over β5c” value is 36 fold and the IC50 turned out to be 112 nM. Besides, the IC50 in test [2] was 3650 nM.
Take `O=C(CCc1ccc(F)cc1)N[C@@H](CC(=O)NC1(C(F)(F)F)CC1)C(=O)NCCNC(=O)c1cccc(-c2ccccc2)c1` [PKS21278]: the IC50 in test [1] was 80 nM; in test [2], 165 nM.
Turning to `O=C(CCc1ccc(F)cc1)N[C@@H](CC(=O)NC1(C(F)(F)F)CC1)C(=O)NCCNC(=O)c1cc(-c2ccccc2F)ccc1F` [PKS21279], the values for the IC50 in test [1] and in test [2] were 37 nM and 114 nM, respectively.
As for `C[C@H](NC(=O)OC(C)(C)C)C(=O)NCCNC(=O)c1cc(-c2ccccc2F)ccc1F` [PKS21280], in test [1], the “inhibitory activity against β5i (in words)” value was “abolished the inhibitory activities” and the IC50 amounted to 33200 nM. In test [2], the “inhibitory activity against β5c (in words)” value was “abolished the inhibitory activities” and the IC50 was more than 100000 nM.
With `CC(C)(C)OC(=O)N[C@@H](CC(N)=O)C(=O)NCCNC(=O)c1cc(-c2ccccc2F)ccc1F` [PKS21281], in test [1], the “inhibitory activity against β5i (in words)” value was “abolished the inhibitory activities” and the IC50 is more than 100000 nM. In addition, in test [2], the “inhibitory activity against β5c (in words)” value is recorded as “abolished the inhibitory activities” and the IC50 was more than 100000 nM.
With `Cc1ccc(S(=O)(=O)N[C@@H](CC(=O)NC(C)(C)C)C(=O)NCCNC(=O)c2cccc(-c3cc[nH]n3)c2)cc1` [PKS21282], the half-maximal inhibitory concentration (IC50) in test [1] was determined as 69 nM; in test [2] it was 1290 nM.
Consider `CC(C)(C)NC(=O)C[C@H](N)C(=O)NCCNC(=O)c1cc(-c2ccccc2F)ccc1F` [PKS21284], for which the results for the IC50 in test [1] and in test [2] were 626 nM and 3090 nM, respectively.
With `Cc1ccc(S(=O)(=O)N[C@@H](CC(N)=O)C(=O)NCCNC(=O)c2cc(-c3ccccc3F)ccc2F)cc1` [PKS21288], in test [1], the “inhibitory activity against β5i (in words)” value was “eliminated inhibitory activity” and the IC50 is 4140 nM. For the same compound, in test [2], the “inhibitory activity against β5c (in words)” value is “eliminated inhibitory activity” and the IC50 is more than 100000 nM.
For `Cc1ccc(S(=O)(=O)NCC(=O)NCCNC(=O)c2cc(-c3ccccc3F)ccc2F)cc1` [PKS21289], in test [1], the “inhibitory activity against β5i (in words)” value is recorded as “eliminated inhibitory activity” and the IC50 worked out at 40300 nM. For the same compound, in test [2], the “inhibitory activity against β5c (in words)” value is “eliminated inhibitory activity” and the IC50 came to 60800 nM.
On to `Cc1ccc(S(=O)(=O)N[C@@H](C)C(=O)NCCNC(=O)c2cc(-c3ccccc3F)ccc2F)cc1` [PKS21290], for which, in test [1], the “inhibitory activity against β5i (in words)” value is “eliminated inhibitory activity” and the IC50 was more than 100000 nM. Also, in test [2], the “inhibitory activity against β5c (in words)” value is listed as “eliminated inhibitory activity” and the IC50 was more than 100000 nM.
Consider `CC(C)(C)NC(=O)C[C@H](NS(=O)(=O)C1CC1)C(=O)NCCNC(=O)c1cc(-c2ccccc2F)ccc1F` [PKS21293], for which the IC50 in test [1] came to 15 nM; in test [2], 960 nM.
For `CC(=O)N[C@@H](CC(=O)NC(C)(C)C)C(=O)NCCNC(=O)c1cc(-c2ccccc2F)ccc1F` [PKS21294], the IC50 in test [1] came to 620 nM; in test [2] it was 13300 nM.
On to `Cc1ccc(S(=O)(=O)N[C@@H](CC(=O)NC(C)(C)C)C(=O)NCCNC(=O)c2cccc(N3CCNC3=O)c2)cc1` [PKS21295], for which the IC50 in test [1] worked out at 129 nM; in test [2], 2390 nM.

The IC50 is the point on the concentration scale where inhibition reaches its midpoint.

The record behind these values is patent publication US11629141B2, “Proteasome inhibitors and uses thereof” (CORNELL UNIVERSITY, priority 2015, dated 2023).
